Where “and” joins values, the source holds several entries; their conditions need not be identical. Identical values can stand only once. Like-named read-outs stand apart in the source and are kept apart here.
Experiments:
Assay type in all cases: cell-based
OATP1B3 = biological target: T1, OATP1B3 (Homo sapiens, UniProt Q9NPD5); assay: Pyranine transport inhibition in A431 cells overexpressing OATP1B3
T1 construct: expressed in transfected cells; host or cells: A431 cells
T1 sequence (Q9NPD5 1-702): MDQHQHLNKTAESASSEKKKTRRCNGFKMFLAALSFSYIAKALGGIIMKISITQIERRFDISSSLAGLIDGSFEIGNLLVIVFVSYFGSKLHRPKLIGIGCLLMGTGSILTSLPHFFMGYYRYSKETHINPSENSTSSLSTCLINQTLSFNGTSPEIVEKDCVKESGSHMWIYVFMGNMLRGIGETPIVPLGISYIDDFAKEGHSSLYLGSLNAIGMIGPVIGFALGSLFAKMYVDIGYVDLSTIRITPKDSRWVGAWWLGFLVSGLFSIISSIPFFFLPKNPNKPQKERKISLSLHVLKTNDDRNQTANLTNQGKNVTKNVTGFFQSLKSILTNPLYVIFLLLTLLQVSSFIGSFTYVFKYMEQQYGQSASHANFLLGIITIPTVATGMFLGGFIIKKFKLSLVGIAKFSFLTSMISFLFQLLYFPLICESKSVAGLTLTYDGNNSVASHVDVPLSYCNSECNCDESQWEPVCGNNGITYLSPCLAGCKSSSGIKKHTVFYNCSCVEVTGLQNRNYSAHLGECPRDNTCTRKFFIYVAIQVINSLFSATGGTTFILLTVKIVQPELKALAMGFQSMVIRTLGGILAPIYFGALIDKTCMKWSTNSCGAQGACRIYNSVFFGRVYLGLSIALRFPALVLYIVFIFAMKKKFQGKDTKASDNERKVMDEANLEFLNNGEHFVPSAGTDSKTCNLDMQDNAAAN
Procedure: (§1) A431 cells overexpressing OATP1B1, OATP1B3, or OATP2B1 or their mock transfected controls were generated previously[30] and maintained in Dulbecco’s modified Eagle medium (DMEM, Gibco, Thermofisher Scientific, Waltham, MA, US) supplemented with 10% fetal bovine serum, 2 mM L-glutamine, 100 units/mL penicillin, and 100 μg/mL streptomycin. Expression and function of OATPs in the cell lines were checked regularly.
(§2) Interaction with OATP1B1, OATP1B3, or OATP2B1 was tested in an indirect transport assay using pyranine (8-hydroxypyrene-1,3,6-trisulfonic acid trisodium salt, H1529, Sigma, Merck, Budapest, Hungary) as the test substrate[31],[32] A431 cells overexpressing OATP1B1, OATP1B3, or OATP2B1 or their mock transfected controls were seeded on 96-well plates in a density of 8 × 10^4 cells per well in 200 μL of cell culture medium 1 day prior to the transport measurements. […] The transport reaction was started by the addition of 50 μL of uptake buffer containing pyranine in a final concentration of 10 μM (OATP1B1) or 20 μM (OATP1B3 and OATP2B1), and the cells were further incubated at 37 °C for 15 min (OATP1B1 and OATP2B1) or 30 min (OATP1B3). The reaction was stopped by removing the supernatant. After repeated washing with ice-cold PBS, fluorescence was determined in an Enspire plate reader (PerkinElmer, Waltham, MA) with excitation/emission wavelengths of 460/510 nm. OATP-dependent transport was calculated by extracting fluorescence measured in mock transfected cells and normalized to the fluorescence signal obtained in the absence of the tested compounds (100%). Experiments were repeated in at least three biological replicates.

OATP2B1 = biological target: T2, OATP2B1 (Homo sapiens, UniProt O94956); assay: Pyranine transport inhibition in A431 cells overexpressing OATP2B1
T2 construct: expressed in transfected cells; host or cells: A431 cells
T2 sequence (O94956 1-709): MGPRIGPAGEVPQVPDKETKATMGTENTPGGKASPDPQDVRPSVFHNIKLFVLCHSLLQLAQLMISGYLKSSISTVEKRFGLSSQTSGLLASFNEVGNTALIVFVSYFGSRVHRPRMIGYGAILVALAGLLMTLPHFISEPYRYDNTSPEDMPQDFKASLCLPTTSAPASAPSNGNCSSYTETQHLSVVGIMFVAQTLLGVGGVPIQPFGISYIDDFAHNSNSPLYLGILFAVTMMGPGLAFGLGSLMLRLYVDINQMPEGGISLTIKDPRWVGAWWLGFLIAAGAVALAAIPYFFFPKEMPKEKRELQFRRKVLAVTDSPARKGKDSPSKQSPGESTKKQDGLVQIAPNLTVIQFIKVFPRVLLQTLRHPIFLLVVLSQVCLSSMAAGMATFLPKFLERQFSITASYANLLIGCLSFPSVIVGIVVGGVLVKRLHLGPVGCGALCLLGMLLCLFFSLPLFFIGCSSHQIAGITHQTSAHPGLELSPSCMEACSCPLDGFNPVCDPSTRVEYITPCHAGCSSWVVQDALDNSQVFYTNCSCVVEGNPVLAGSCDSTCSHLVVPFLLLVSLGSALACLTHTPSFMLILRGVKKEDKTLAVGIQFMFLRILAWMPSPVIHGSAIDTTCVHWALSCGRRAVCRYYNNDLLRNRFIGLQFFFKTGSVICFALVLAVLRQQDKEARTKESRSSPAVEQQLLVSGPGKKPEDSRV
Procedure: as §1, §2

OATP1B1 = biological target: T3, OATP1B1 (Homo sapiens, UniProt Q9Y6L6); assay: Pyranine transport inhibition in A431 cells overexpressing OATP1B1
T3 construct: expressed in transfected cells; host or cells: A431 cells
T3 sequence (Q9Y6L6 1-691): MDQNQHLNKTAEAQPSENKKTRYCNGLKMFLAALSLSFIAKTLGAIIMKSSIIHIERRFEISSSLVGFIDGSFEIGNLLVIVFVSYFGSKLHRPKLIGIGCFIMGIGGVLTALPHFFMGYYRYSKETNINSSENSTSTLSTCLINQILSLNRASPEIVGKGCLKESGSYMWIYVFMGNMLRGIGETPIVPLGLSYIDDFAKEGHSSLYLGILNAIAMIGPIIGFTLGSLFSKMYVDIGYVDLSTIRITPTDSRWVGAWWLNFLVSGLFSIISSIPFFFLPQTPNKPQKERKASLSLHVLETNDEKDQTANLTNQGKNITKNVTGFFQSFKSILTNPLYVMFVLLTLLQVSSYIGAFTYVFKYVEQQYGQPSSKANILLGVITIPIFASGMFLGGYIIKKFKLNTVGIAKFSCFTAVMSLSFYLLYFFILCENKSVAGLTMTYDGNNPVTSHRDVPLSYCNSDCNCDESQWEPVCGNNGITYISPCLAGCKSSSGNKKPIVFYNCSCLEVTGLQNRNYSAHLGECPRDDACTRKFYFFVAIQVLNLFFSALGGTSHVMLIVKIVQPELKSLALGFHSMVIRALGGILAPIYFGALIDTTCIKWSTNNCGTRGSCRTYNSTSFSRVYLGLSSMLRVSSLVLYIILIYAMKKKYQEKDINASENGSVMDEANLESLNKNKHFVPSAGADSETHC
Procedure: as §1, §2

[1] = initial three-point screen (1, 10, 100 μM), category by concentration needed for 50% inhibition, pyranine 20 μM, 30 min, pH 5.5, read-out: IC50 (μM) OATP1B3
[2] = initial three-point screen (1, 10, 100 μM), category by concentration needed for 50% inhibition, pyranine 20 μM, 15 min, pH 5.5, read-out: IC50 (μM) OATP2B1
[3] = initial three-point screen (1, 10, 100 μM), category by concentration needed for 50% inhibition, pyranine 10 μM, 15 min, pH 5.5, read-out: IC50 (μM) OATP1B1
[4] = initial three-point screen (1, 10, 100 μM), category by concentration needed for 50% inhibition, pyranine 20 μM, 30 min, pH 5.5
[5] = initial three-point screen (1, 10, 100 μM), category by concentration needed for 50% inhibition, pyranine 10 μM, 15 min, pH 5.5
[6] = IC50 (μM) OATP1B3, initial three-point screen (1, 10, 100 μM), category by concentration needed for 50% inhibition, pyranine 20 μM, 30 min, pH 5.5
[7] = IC50 (μM) OATP2B1, initial three-point screen (1, 10, 100 μM), category by concentration needed for 50% inhibition, pyranine 20 μM, 15 min, pH 5.5

| Structure (SMILES) | IC50 (OATP1B3; [1]) | IC50 (OATP2B1; [2]) | IC50 (OATP1B1; [3]) | further results |
| --- | --- | --- | --- | --- |
| N#Cc1c(NC(=O)COC(=O)CN2C(=O)NC3(CCc4ccccc43)C2=O)sc2c1CCCCC2 (stereo not drawn) [A2, O=C(COC(=O)CN1C(=O)NC2(CCc3ccccc23)C1=O)Nc4sc5CCCCCc5c4C#N] | 1 to 10 µM | 1 to 10 µM | 1 to 10 µM |  |
| Cc1occc1-c1nnc(SCC(=O)c2ccc3c(c2)NC(=O)CO3)n1Cc1ccccc1 [A3, Cc1occc1c2nnc(SCC(=O)c3ccc4OCC(=O)Nc4c3)n2Cc5ccccc5] | > 10 µM | 1 to 10 µM | 1 to 10 µM |  |
| Fc1ccccc1-c1cc(-c2ccccc2)c2c3c(sc2n1)CCCC3 [A4, Fc1ccccc1c2cc(c3ccccc3)c4c5CCCCc5sc4n2] |  | > 10 µM |  | IC50 (μM) OATP1B3 (OATP1B3; [4]): no effect; IC50 (μM) OATP1B1 (OATP1B1; [5]): no effect |
| Fc1ccc(C2CC(c3cccs3)=NN2c2nc(-c3ccccc3)c3cc(Cl)ccc3n2)cc1 (stereo not drawn) [A5, Fc1ccc(cc1)C2CC(=NN2c3nc(c4ccccc4)c5cc(Cl)ccc5n3)c6cccs6] |  | > 10 µM |  | IC50 (μM) OATP1B3 (OATP1B3; [4]): no effect; IC50 (μM) OATP1B1 (OATP1B1; [5]): no effect |
| O=C(CN1C(=O)NC(Cc2c[nH]c3ccccc23)C1=O)Nc1ccc(OCc2ccccc2)cc1 (stereo not drawn) [A6, O=C(CN1C(=O)NC(Cc2c[nH]c3ccccc23)C1=O)Nc4ccc(OCc5ccccc5)cc4] | > 10 µM | > 10 µM |  | IC50 (μM) OATP1B1 (OATP1B1; [5]): no effect |
| CC(C)(C)c1ncc(NC(=O)c2ccccc2-c2ncc(-c3ccccc3)o2)cn1 [A7, CC(C)(C)c1ncc(NC(=O)c2ccccc2c3oc(cn3)c4ccccc4)cn1] |  | 1 to 10 µM |  | IC50 (μM) OATP1B3 (OATP1B3; [4]): Activated; IC50 (μM) OATP1B1 (OATP1B1; [5]): no effect |
| Cc1ccc(NC(=O)C(Sc2nnc3n2CCCCC3)c2ccccc2)cc1Cl (stereo not drawn) [B2, Cc1ccc(NC(=O)C(Sc2nnc3CCCCCn23)c4ccccc4)cc1Cl] |  |  |  | IC50 (OATP1B3; [6]): > 10 µM; IC50 (OATP2B1; [7]): > 10 µM; IC50 (μM) OATP1B1 (OATP1B1; [5]): no effect |
| O=C(CC12CC3CC(CC(C3)C1)C2)NCC(=O)N1CCN(S(=O)(=O)c2ccccc2F)CC1 [B3, Fc1ccccc1S(=O)(=O)N2CCN(CC2)C(=O)CNC(=O)CC34CC5CC(CC(C5)C3)C4] | > 10 µM | 1 to 10 µM | > 10 µM |  |
| O=C(Cc1ccccc1[N+](=O)[O-])NCC1CC2c3ccccc3C1c1ccccc12 (stereo not drawn) [B4, [O-][N+](=O)c1ccccc1CC(=O)NCC2CC3c4ccccc4C2c5ccccc35] |  |  |  | IC50 (OATP1B3; [6]): 1 to 10 µM; IC50 (OATP1B3; full dose-response curve, eight concentrations, Hill1 fit, read-out: IC50 (μM) OATP1B3): ~10 µM; IC50 (OATP2B1; [7]): 1 to 10 µM; IC50 (OATP2B1; full dose-response curve, eight concentrations, Hill1 fit, read-out: IC50 (μM) OATP2B1): 2.4 µM and 2.37 µM; IC50 (OATP1B1; full dose-response curve, eight concentrations, Hill1 fit, read-out: IC50 (μM) OATP1B1): ~10 µM; IC50 at 15 min (OATP1B1; human, pH 5.5): > 10 µM |
| O=C(NCc1ccccn1)c1ccc2c(c1)S(=O)(=O)c1ccccc1C2=O [B5, O=C(NCc1ccccn1)c2ccc3C(=O)c4ccccc4S(=O)(=O)c3c2] |  |  |  | IC50 (μM) OATP1B3 (OATP1B3; [4]): Activated; IC50 (OATP2B1; [7]): 1 to 10 µM; IC50 (OATP1B1): > 10 µM |
| O=C(CSc1nc2cc(C(F)(F)F)ccc2n1Cc1ccccc1)c1ccc[nH]1 [B6, FC(F)(F)c1ccc2c(c1)nc(SCC(=O)c3ccc[nH]3)n2Cc4ccccc4] | > 10 µM | > 10 µM | > 10 µM |  |
| Cc1cc(C)n2nc(SCc3ccccc3C(=O)NCCc3ccc4c(c3)OCCO4)nc2n1 [C2, Cc1cc(C)n2nc(SCc3ccccc3C(=O)NCCc4ccc5OCCOc5c4)nc2n1] |  | 1 to 10 µM | 1 to 10 µM |  |
| CC(OC(=O)c1cc(Cl)c2c(c1)OCCCO2)C(=O)c1ccc2c(c1)NC(=O)CO2 (stereo not drawn) [D4, CC(OC(=O)c1cc(Cl)c2OCCCOc2c1)C(=O)c3ccc4OCC(=O)Nc4c3] |  | 1 to 10 µM |  |  |
| O=C(OCC(=O)N(C1CCCCC1)C1CCCCC1)c1nn(-c2ccccc2)c(=O)c2ccccc12 [D5, O=C(COC(=O)C1=NN(C(=O)c2ccccc12)c3ccccc3)N(C4CCCCC4)C5CCCCC5] | > 10 µM |  | > 10 µM |  |
| O=C(CN1C(=O)NC2(CCCc3ccccc32)C1=O)Nc1nnc(C23CC4CC(CC(C4)C2)C3)s1 (stereo not drawn) [D6, O=C(CN1C(=O)NC2(CCCc3ccccc23)C1=O)Nc4nnc(s4)C56CC7CC(CC(C7)C5)C6] |  | 1 to 10 µM | > 10 µM |  |
| CC1CCN(c2nnc(SCC(=O)NCC3COc4ccccc4O3)n2C2CC2)CC1 (stereo not drawn) [E4, CC1CCN(CC1)c2nnc(SCC(=O)NCC3COc4ccccc4O3)n2C5CC5] | > 10 µM | 1 to 10 µM |  |  |
| O=C(Nc1ccccc1)c1ccccc1OCC(=O)N1CCN(C(=O)c2ccco2)CC1 [F2, O=C(COc1ccccc1C(=O)Nc2ccccc2)N3CCN(CC3)C(=O)c4occc4] | > 10 µM | 1 to 10 µM |  |  |
| O=C(CCc1ncc(-c2c(F)cccc2F)o1)N1CCN(S(=O)(=O)c2ccccc2F)CC1 [G3, Fc1cccc(F)c1c2oc(CCC(=O)N3CCN(CC3)S(=O)(=O)c4ccccc4F)nc2] | > 10 µM | 1 to 10 µM |  |  |
| CC(OC(=O)C1CCN(S(=O)(=O)c2ccc3c(c2)OCCO3)CC1)C(=O)Nc1cccc(C#N)c1 (stereo not drawn) [H3, CC(OC(=O)C1CCN(CC1)S(=O)(=O)c2ccc3OCCOc3c2)C(=O)Nc4cccc(c4)C#N] |  | 1 to 10 µM | 1 to 10 µM |  |

From PMC9795544, “Identifying Novel Inhibitors for Hepatic Organic Anion Transporting Polypeptides by Machine Learning-Based Virtual Screening” (Journal of Chemical Information and Modeling, 2022)
